Each structure is given as a SMILES string.

The first test has as its target T1, ER (Homo sapiens, UniProt P03372).
T1 construct: host or cells: T47D and MCF7 human breast cancer cells
T1 sequence (P03372 1-595): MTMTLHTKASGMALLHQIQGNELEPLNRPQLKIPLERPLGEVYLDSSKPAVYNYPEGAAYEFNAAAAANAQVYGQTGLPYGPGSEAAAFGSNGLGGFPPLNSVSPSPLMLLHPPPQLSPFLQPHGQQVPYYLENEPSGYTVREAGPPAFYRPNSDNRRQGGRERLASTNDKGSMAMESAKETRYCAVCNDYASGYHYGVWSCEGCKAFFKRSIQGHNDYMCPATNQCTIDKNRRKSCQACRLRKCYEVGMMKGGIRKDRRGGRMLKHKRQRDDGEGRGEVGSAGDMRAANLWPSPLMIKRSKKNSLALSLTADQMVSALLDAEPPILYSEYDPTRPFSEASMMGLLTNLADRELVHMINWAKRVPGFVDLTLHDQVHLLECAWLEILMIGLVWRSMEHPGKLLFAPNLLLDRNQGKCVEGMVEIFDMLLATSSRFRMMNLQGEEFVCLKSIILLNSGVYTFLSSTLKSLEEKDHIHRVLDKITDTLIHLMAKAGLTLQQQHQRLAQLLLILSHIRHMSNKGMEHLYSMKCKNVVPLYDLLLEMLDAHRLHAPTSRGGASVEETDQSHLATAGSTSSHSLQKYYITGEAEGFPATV
Briefly: ER degradation activity, in-cell western blot analysis in T47D cells. The note with it: 16 hours, Table A does not say which cell line (T47D or MCF7), read-out: Potency (DC50). The test is classed as cell-based. The gist of the method:
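Cells were seeded overnight, exposed to diluted compounds for 16 hours, then stained with primary antibodies and with infrared-labelled secondary antibodies (1:1000, 1 h RT). Plates were scanned on a CLX reader, and ER levels were normalised to DMSO-treated wells.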
As to `C[C@@H]1Cc2c([nH]c3ccccc23)[C@@H](c2c(F)cc(N3CC4(CCN(CC(=O)N5Cc6cc7c(cc6C5)C(=O)N(C5CCC(=O)NC5=O)C7=O)CC4)C3)cc2F)N1CC(F)F` (stereo partly drawn) [E 97, 6-(2-(2-(4-((1R,3R)-2-(2,2-difluoroethyl)-3-methyl-2,3,4,9-tetrahydro-1H-pyrido[3,4-b]indol-1-yl)-3,5-difluorophenyl)-2,7-diazaspiro[3.5]nonan-7-yl)acetyl)-2-(2,6-dioxopiperidin-3-yl)-6,7-dihydropyrrolo[3,4-f]isoindole-1,3(2H,5H)-dione], the DC50 lay in the range of 10 to 100 nM.
The same measure, in the same setting: to `O=C1CCC(N2C(=O)c3cc4c(cc3C2=O)CN(CC2CN(CC3CCN(c5ccc([C@@H]6c7ccc(O)cc7CC[C@@H]6c6ccccc6)cc5)CC3)C2)C4)C(=O)N1` (stereo partly drawn) [E 218, 2-(2,6-dioxopiperidin-3-yl)-6-((1-((1-(4-((1R,2S)-6-hydroxy-2-phenyl-1,2,3,4-tetrahydronaphthalen-1-yl)phenyl)piperidin-4-yl)methyl)azetidin-3-yl)methyl)-6,7-dihydropyrrolo[3,4-f]isoindole-1,3(2H,5H)-dione] belongs more than 100 nM; to `C[C@@H]1Cc2c([nH]c3ccccc23)[C@@H](c2ccc(N3CCC4(CCN(C(=O)CN5Cc6cc7c(cc6C5)C(=O)N(C5CCC(=O)NC5=O)C7=O)CC4)CC3)nc2)N1CC(F)F` (stereo partly drawn) [E 281, 6-(2-(9-(5-((1R,3R)-2-(2,2-difluoroethyl)-3-methyl-2,3,4,9-tetrahydro-1H-pyrido[3,4-b]indol-1-yl)pyridin-2-yl)-3,9-diazaspiro[5.5]undecan-3-yl)-2-oxoethyl)-2-(2,6-dioxopiperidin-3-yl)-6,7-dihydropyrrolo[3,4-f]isoindole-1,3(2H,5H)-dione], 10 to 100 nM.
Regarding `C[C@@H]1Cc2c([nH]c3ccccc23)[C@@H](c2c(F)cc(-c3cnc(C(=O)N4CCC(N5Cc6cc7c(cc6C5)C(=O)N(C5CCC(=O)NC5=O)C7=O)CC4)cn3)cc2F)N1CC(F)F` (stereo partly drawn) [E 344, 6-(1-(5-(4-((1R,3R)-2-(2,2-difluoroethyl)-3-methyl-2,3,4,9-tetrahydro-1H-pyrido[3,4-b]indol-1-yl)-3,5-difluorophenyl)pyrazine-2-carbonyl)piperidin-4-yl)-2-(2,6-dioxopiperidin-3-yl)-6,7-dihydropyrrolo[3,4-f]isoindole-1,3(2H,5H)-dione], the half-maximal degradation concentration (DC50) was more than 100 nM.
The same measure, in the same setting: to `C[C@@H]1Cc2cc(O)ccc2[C@@H](c2ccc(N3CCC(C(=O)N4CC(CN5Cc6cc7c(cc6C5)C(=O)N(C5CCC(=O)NC5=O)C7=O)C4)CC3)cc2F)N1CC(F)F` (stereo partly drawn) [E 349, 6-((1-(1-(4-((1S,3R)-2-(2,2-difluoroethyl)-6-hydroxy-3-methyl-1,2,3,4-tetrahydroisoquinolin-1-yl)-3-fluorophenyl)piperidine-4-carbonyl)azetidin-3-yl)methyl)-2-(2,6-dioxopiperidin-3-yl)-6,7-dihydropyrrolo[3,4-f]isoindole-1,3(2H,5H)-dione] belongs more than 100 nM; to `C[C@@H]1Cc2cc(O)ccc2[C@@H](c2c(F)cc(N3CCC4(CCN(CC(=O)N5Cc6cc7c(cc6C5)C(=O)N(C5CCC(=O)NC5=O)C7)C4)C3)cc2F)N1CC(C)(F)F` (stereo partly drawn) [E 32, 3-(6-(2-(7-(4-((1S,3R)-2-(2,2-difluoropropyl)-6-hydroxy-3-methyl-1,2,3,4-tetrahydroisoquinolin-1-yl)-3,5-difluorophenyl)-2,7-diazaspiro[4.4]nonan-2-yl)acetyl)-1-oxo-3,5,6,7-tetrahydropyrrolo[3,4-f]isoindol-2(1H)-yl)piperidine-2,6-dione], more than 100 nM.
On the same count and under the same terms, to `C[C@@H]1Cc2cc(O)ccc2[C@@H](c2c(F)cc(N3CCC4(CCN(C(=O)CN5Cc6cc7c(cc6C5)C(=O)N(C5CCC(=O)NC5=O)C7=O)CC4)CC3)cc2F)N1CC(F)F` (stereo partly drawn) [E 320, 6-(2-(9-(4-((1S,3R)-2-(2,2-difluoroethyl)-6-hydroxy-3-methyl-1,2,3,4-tetrahydroisoquinolin-1-yl)-3,5-difluorophenyl)-3,9-diazaspiro[5.5]undecan-3-yl)-2-oxoethyl)-2-(2,6-dioxopiperidin-3-yl)-6,7-dihydropyrrolo[3,4-f]isoindole-1,3(2H,5H)-dione] belongs less than 10 nM; to `O=C1CCC(N2Cc3cc4c(cc3C2=O)CN(C(=O)[C@H]2CC[C@H](N3CC(Oc5ccc([C@@H]6c7ccc(O)cc7CC[C@@H]6c6ccccc6)cc5)C3)CC2)C4)C(=O)N1` (single isomer, unassigned) [E 357], less than 10 nM.
Turning to `C[C@@H]1Cc2c([nH]c3ccccc23)[C@@H](c2c(F)cc(N3CCC(CN4CCC(N5Cc6cc7c(cc6C5)C(=O)N(C5CCC(=O)NC5=O)C7=O)CC4)CC3)cc2F)N1CC(F)F` (stereo partly drawn) [E 51, 6-(1-((1-(4-((1R,3R)-2-(2,2-difluoroethyl)-3-methyl-2,3,4,9-tetrahydro-1H-pyrido[3,4-b]indol-1-yl)-3,5-difluorophenyl)piperidin-4-yl)methyl)piperidin-4-yl)-2-(2,6-dioxopiperidin-3-yl)-6,7-dihydropyrrolo[3,4-f]isoindole-1,3(2H,5H)-dione], the DC50 was in the range of 10 to 100 nM.
Still for that read-out and setting: for `C[C@@H]1Cc2c([nH]c3ccccc23)[C@@H](c2cnc(C3=CCC(C(=O)N4CCC(N5Cc6cc7c(cc6C5)C(=O)N(C5CCC(=O)NC5=O)C7=O)CC4)CC3)nc2)N1CC(F)F` (stereo partly drawn) [E 315, 6-(1-(4-(5-((1R,3R)-2-(2,2-difluoroethyl)-3-methyl-2,3,4,9-tetrahydro-1H-pyrido[3,4-b]indol-1-yl)pyrimidin-2-yl)cyclohex-3-ene-1-carbonyl)piperidin-4-yl)-2-(2,6-dioxopiperidin-3-yl)-6,7-dihydropyrrolo[3,4-f]isoindole-1,3(2H,5H)-dione] the value was more than 100 nM; for `CCC(=C(c1ccc(O)cc1)c1ccc(N2CCC3(CC2)CN(C(=O)CN2CCc4cc5c(cc4C2)C(=O)N(C2CCC(=O)NC2=O)C5=O)C3)cc1)c1ccccc1` (stereo not shown) [E 194, 2-(2,6-dioxopiperidin-3-yl)-6-(2-(7-(4-(1-(4-hydroxyphenyl)-2-phenylbut-1-en-1-yl)phenyl)-2,7-diazaspiro[3.5]nonan-2-yl)-2-oxoethyl)-5,6,7,8-tetrahydro-1H-pyrrolo[3,4-g]isoquinoline-1,3(2H)-dione], 10 to 100 nM.
Same read-out and setting: to `C[C@@H]1Cc2c([nH]c3ccccc23)[C@@H](c2c(F)cc(C3CCN(C[C@H]4CC[C@@H](N5Cc6cc7c(cc6C5)C(=O)N(C5CCC(=O)NC5=O)C7=O)CC4)CC3)cc2F)N1CC(F)F` (stereo partly drawn) [E 367, 6-((1S,4s)-4-((4-(4-((1R,3R)-2-(2,2-difluoroethyl)-3-methyl-2,3,4,9-tetrahydro-1H-pyrido[3,4-b]indol-1-yl)-3,5-difluorophenyl)piperidin-1-yl)methyl)cyclohexyl)-2-(2,6-dioxopiperidin-3-yl)-6,7-dihydropyrrolo[3,4-f]isoindole-1,3(2H,5H)-dione] belongs more than 100 nM.
As to `O=C1CCC(N2C(=O)c3cc4c(cc3C2=O)CN(C2CN(C(=O)C3CCN(c5ccc([C@@H]6c7ccc(O)cc7CC[C@@H]6c6ccccc6)cc5)CC3)C2)C4)C(=O)N1` (mixture of isomers) [E 15, Rac-2-(2,6-dioxopiperidin-3-yl)-6-(1-(1-(4-((1R,2S)-6-hydroxy-2-phenyl-1,2,3,4-tetrahydronaphthalen-1-yl)phenyl)piperidine-4-carbonyl)azetidin-3-yl)-6,7-dihydropyrrolo[3,4-f]isoindole-1,3(2H,5H)-dione], the DC50 is 10 to 100 nM.
`C[C@@H]1Cc2c([nH]c3ccccc23)[C@@H](c2c(F)cc(N3CC4(CCN(CC(=O)N5Cc6cc7c(cc6C5)C(=O)N(C5CCC(=O)NC5=O)C7)CC4)C3)cc2F)N1CC(F)F` (stereo partly drawn) [E 98, 3-(6-(2-(2-(4-((1R,3R)-2-(2,2-difluoroethyl)-3-methyl-2,3,4,9-tetrahydro-1H-pyrido[3,4-b]indol-1-yl)-3,5-difluorophenyl)-2,7-diazaspiro[3.5]nonan-7-yl)acetyl)-1-oxo-3,5,6,7-tetrahydropyrrolo[3,4-f]isoindol-2(1H)-yl)piperidine-2,6-dione]: the half-maximal degradation concentration (DC50) is less than 10 nM.

The same test, now with this note: compounds 16 hours, Table A does not say whether T47D or MCF7, read-out: Potency (DC50).
For the compound `O=C1CCC(N2C(=O)c3cc4c(cc3C2=O)CN(CC2CCC3(CC2)CN(C(=O)c2ccc([C@@H]5c6ccc(O)cc6CC[C@@H]5c5ccccc5)cc2)C3)C4)C(=O)N1` (stereo partly drawn) [E 493, 2-(2,6-dioxopiperidin-3-yl)-6-((2-(4-((1R,2S)-6-hydroxy-2-phenyl-1,2,3,4-tetrahydronaphthalen-1-yl)benzoyl)-2-azaspiro[3.5]nonan-7-yl)methyl)-6,7-dihydropyrrolo[3,4-f]isoindole-1,3(2H,5H)-dione], the DC50 is more than 100 nM.
For `C[C@@H]1Cc2c([nH]c3ccccc23)[C@@H](c2ccc(C3=CCC4(CC3)CCN(C(=O)CN3Cc5cc6c(cc5C3)C(=O)N(C3CCC(=O)NC3=O)C6=O)CC4)cc2F)N1CC(F)F` (stereo partly drawn) [E 477, 6-(2-(9-(4-((1R,3R)-2-(2,2-difluoroethyl)-3-methyl-2,3,4,9-tetrahydro-1H-pyrido[3,4-b]indol-1-yl)-3-fluorophenyl)-3-azaspiro[5.5]undec-8-en-3-yl)-2-oxoethyl)-2-(2,6-dioxopiperidin-3-yl)-6,7-dihydropyrrolo[3,4-f]isoindole-1,3(2H,5H)-dione], the DC50 was more than 100 nM.

As a reminder, the DC50 is the concentration at which degradation of the target reaches its halfway point.
